Data on 7 compounds can be found in patent US4172145A, “Benzo(b)furylacetic acid derivatives to reduce inflammation” (priority 1975, dated 1979).

Read-outs that look alike come from different tables or passages of the source.

A short description of data set [1]: in vivo. Conditions: rat, po. How it is done: A test group consisting of 10-15 rats (male Wistar strain; weight: 180-220 g) was used in this test. Each rat was fasted for 20 hours, but water was allowed ad libitum. The compounds shown in Table 5 were administered orally. After a 20-hour interval during which the rats were not fed but were allowed water, each rat was administered under ether anesthesia with 0.5 ml per 100 g body weight of a 5% solution of pontamine sky blue 6BX in saline (pH 7.2--adjusted with 0.5 N HCl) by intravenous injection. 15 minutes after administration each rat was killed. The stomach was removed and maintained in a 1% formalin solution. After about 2 hours, the stomach was opened along the greater curvature and the length of lesions (dark blue areas against pale blue background) in the glandular portion was measured under a dissecting microscope (10×) provided with a square grid. The sum of the lengths (mm) of lesions was used as ulcer index.

Data set [2] concerns carrageenin-induced edema on the hind paw of rats. Nature of the data set: Anti-edema effect on carrageenin-induced edema on the hind paw of rats (Carrageenin Edema Method). The following applies: rat, oral, 3 hours after carrageenin; for inhibition in vivo at 75 mg/kg / inhibition in vivo at 150 mg/kg / inhibition in vivo at 300 mg/kg: read-out: Anti-edema Effect, Suppression Ratio. In kind it is in vivo, rat (male Wistar strain). As to the method:
The anti-edema effect was determined according to the method of Yamazaki et al [Yamazaki, H., et al; Folia Pharmacologica Japonica, 63, 302 (1967)].
In this test, a group consisting of five rats (male Wistar strain: weight 100-120 g) was used for the test and control groups. The compounds shown in Table 2 were administered orally to the rats of the test group. After one hour, 0.1 ml of a 1% carrageenin solution (phlogistic agent) was further administered to each rat by subcutaneous injection in one hind paw. To each rat of the control group, 0.1 ml of a 1% carrageenin solution was also administered in a similar manner to that for test rats. 1, 3 and 5 hours after administration of the phlogistic agent, the swelling ratio was calculated by means of the following equation: […]
Test group [formula] in which b: swelling ratio
B: volume of a hind paw without administration of phlogistic agent
B': volume of a hind paw administered with phlogistic agent
Control group [formula] in which a: swelling ratio
A: volume of a hind paw without administration of phlogistic agent
A': volume of a hind paw administered with phlogistic agent
The anti-edema effect was expressed as the suppression ratio of the edema in comparison with the control group to which the test compound had not been administered. The suppression ratio of the edema was determined 3 hours after administration of the phlogistic agent and was calculated by means of the following equation: [formula] in which a and b are as hereinbefore defined.
For orientation: In the carrageenan paw model, swelling and tenderness develop within hours.

The test system of data set [3] is pain threshold of inflamed and not inflamed paws of rats. Nature of the data set: Analgesic activity in rats (Randall-Selitto Method). Conditions: Rattus norvegicus, po, P.O. 150 mg/kg, read-out: Analgesic Coefficient. The format is in vivo, rat (male Wister strain). How it is done: A group consisting of 6-7 rats (male Wister strain; weight: 100-120 g) was used for the test and control groups in this test. Each rat of both groups was treated with 0.1 ml of a 1% carrageenin solution as phlogistic agent by subcutaneous injection in one hind paw. 3 hours after the administration, pressure was applied to the treated paw of each rat by means of a pressing device (manufactured by Ugobasile S. A., Italy). The threshold of pain induced by press was measured with reference to the shriek and struggle according to the method of Randall and Selitto [Randall, L. O. and Selitto, J. J.; Arch, Int. Pharmocodyn., 111, 409 (1957)]. From each group 5 rats having a good response reaction, i.e. the pain threshold was not more than 70 g, were respectively selected. […] 1, 2 and 3 hours after administration, pressure was again applied to both the inflamed and not inflamed paws of the test rats and the pain threshold was measured. On the other hand, without the administration of the active compound, the pressure was applied to both the inflamed and not inflamed paws of the selected 5 rats of the control group and the pain threshold was measured. The inflamed paws of the test and control groups were compared with each other. Also the not inflamed paws of the both groups were compared with each other.
The analgesic coefficient was calculated by means of the following equation, and the larger analgesic coefficient the better analgesic activity. [formula] in which X: analgesic coefficient (%)
P1 : threshold (g) of the test rats administered with active compounds
P2 : threshold (g) of the control rats without administration of active compound

Data set [4] in a line: in vivo. Conditions: oral, observed one week, Litchfield and Wilcoxon. As to the method:
In this test, five groups, each consisting of 5 mice (male dd strain; weight: 19-21 g) and 5 rats (male Wistar strain; weight: 100-120 g) were used. […] The LD50 was calculated according to the method of Litchfield and Wilcoxon [Journal of Pharmacol. and Exper. Therap.

For data set [5], the system named is acetic acid-induced writhing reactions in mice. Nature of the data set: Analgesic activity in mice (AcOH Writhing Method). The format is in vivo, mouse (male dd-strain). Conditions: mouse, oral; for inhibition in vivo at 150 mg/kg / inhibition in vivo at 300 mg/kg: 1 h before acetic acid, read-out: Analgesic Effect (AcOH Writhing Method), Suppression Ratio; for ED50: read-out: Analgesic Effect (AcOH Writhing Method), ED50. How it is done: In this test, three groups, each consisting of 10 mice (male dd-strain; weight: 19-21 g) were used. The compounds shown in Table 3 were administered orally to the test mice. One hour after the administration, the mice were treated with 0.1 ml/10 g of 0.7% acetic acid solution in physiological saline by intraperitoneal injection according to the method of Koster et al [Koster, R., et al; Fed. Proc., 18, 412 (1959)]. Ten minutes after the treatment, the number of writhing reactions occurring in the mice was counted.
(In general: An intraperitoneal irritant provokes the stretching counted in writhing tests.)

For data set [6] the following is noted: Eur. J. Med. Chem. 1975-10, N. 2, p. 182-186; cited from earlier work.
For data set [7] the following is noted: Eur. J. Med. Chem. 1975-10, N. 2, p. 182-186; cited from earlier work. This is another data set of the same source.
[8] abbreviates: mouse, read-out: Acute Toxicity (P.O.), LD50, Mouse.
Setting [9] is: rat, read-out: Acute Toxicity (P.O.), LD50, Rat.

In the data set “in vivo [1]”, `Cc1c(CC(=O)O)oc2ccc(Cl)cc12` [Test Compound 2, 5-chloro-3-methyl-2-benzo(b)furylacetic acid] displayed a TD50 at 20 h of 230 mg/kg. Further, in data set [2], the inhibition in vivo at 75 mg/kg stood at 45.7%. Also, the results for the inhibition in vivo at 150 mg/kg in data set [2] and in data set [5] were 63.3% and 35.9%, respectively. Besides, the results for the inhibition in vivo at 300 mg/kg in data set [2] and in data set [5] were 74.2% and 68.8%, respectively. For the same compound, the ED50 (usually the midpoint of the dose-response relation) in data set [2] came to 980 mg/kg; in data set [5], 190 mg/kg. Besides, the change in vivo at 150 mg/kg is 25.1% in data set [3] (1 h, inflamed paw, 1 hr.); 0.5% in data set [3] (1 h, not inflamed paw, 1 hr.); 17.8% in data set [3] (2 h, inflamed paw, 2 hr.); 1.3% in data set [3] (2 h, not inflamed paw, 2 hr.); 16.3% in data set [3] (3 h, inflamed paw, 3 hr.); 2.4% in data set [3] (3 h, not inflamed paw, 3 hr.). Also, the LD50 (commonly the dose expected to kill half of the subjects tested) at 168 h in “in vivo [4]” (setting [8]) was 800 mg/kg; in “in vivo [4]” (setting [9]) it was 425 mg/kg.
As to `COc1ccc2oc(CC(=O)O)c(C)c2c1` [Test Compound 3, 5-methoxy-3-methyl-2-benzo(b)furylacetic acid], the TD50 at 20 h in “in vivo [1]” was > 300 mg/kg. Further, in data set [2], the inhibition in vivo at 75 mg/kg worked out at 34.5%. For the same compound, the inhibition in vivo at 150 mg/kg is 60.8% in data set [2] and 20.8% in data set [5]. Moreover, the inhibition in vivo at 300 mg/kg in data set [2] is 73.1%; in data set [5], 53.6%. Besides, the ED50 came out at 110 mg/kg in data set [2] and 280 mg/kg in data set [5]. Also, the change in vivo at 150 mg/kg in data set [3] (1 h, inflamed paw, 1 hr.) was 24.1%; in data set [3] (1 h, not inflamed paw, 1 hr.), 1.9%; in data set [3] (2 h, inflamed paw, 2 hr.), 5.2%; in data set [3] (2 h, not inflamed paw, 2 hr.), 0%; in data set [3] (3 h, inflamed paw, 3 hr.), 0%; in data set [3] (3 h, not inflamed paw, 3 hr.), 0%. Moreover, the values for the LD50 at 168 h in the data set “in vivo [4]” (setting [8]) and in the data set “in vivo [4]” (setting [9]) were 1110 mg/kg and > 1000 mg/kg, respectively.
As for `Cc1ccc2oc(CC(=O)O)c(C)c2c1` [Test Compound 4, 3,5-dimethyl-2-benzo(b)furylacetic acid], in the data set “in vivo [1]”, the TD50 at 20 h is > 300 mg/kg. Also, in data set [2], the inhibition in vivo at 75 mg/kg amounted to 43.8%. The results for the inhibition in vivo at 150 mg/kg in data set [2] and in data set [5] were 56.2% and 11.2%, respectively. Also, the inhibition in vivo at 300 mg/kg in data set [2] is 70.9%; in data set [5], 41.4%. In addition, the ED50 was found to be 100 mg/kg in data set [2] and 350 mg/kg in data set [5]. For the same compound, the change in vivo at 150 mg/kg in data set [3] (1 h, inflamed paw, 1 hr.) is 35.4%; in data set [3] (1 h, not inflamed paw, 1 hr.), 0%; in data set [3] (2 h, inflamed paw, 2 hr.), 18.8%; in data set [3] (2 h, not inflamed paw, 2 hr.), 0%; in data set [3] (3 h, inflamed paw, 3 hr.), 7.1%; in data set [3] (3 h, not inflamed paw, 3 hr.), 0%. Also, the LD50 at 168 h in the data set “in vivo [4]” (setting [8]) is 1310 mg/kg; in “in vivo [4]” (setting [9]), > 1000 mg/kg.
With `Cc1c(CC(=O)O)oc2ccc(F)cc12` [Test Compound 5, 5-fluoro-3-methyl-2-benzo(b)furylacetic acid], the TD50 at 20 h in the data set “in vivo [1]” was > 300 mg/kg. In addition, the inhibition in vivo at 75 mg/kg in data set [2] worked out at 37.9%. The inhibition in vivo at 150 mg/kg in data set [2] is 60%; in data set [5] it was 26%. The inhibition in vivo at 300 mg/kg was 71.9% in data set [2] and 41.4% in data set [5]. Further, the 50% effective dose (ED50) in data set [2] came to 105 mg/kg; in data set [5], 380 mg/kg. Further, the change in vivo at 150 mg/kg in data set [3] (1 h, inflamed paw, 1 hr.) turned out to be 38.6%; in data set [3] (1 h, not inflamed paw, 1 hr.), 0%; in data set [3] (2 h, inflamed paw, 2 hr.) it was 23.5%; in data set [3] (2 h, not inflamed paw, 2 hr.), 0%; in data set [3] (3 h, inflamed paw, 3 hr.), 19.3%; in data set [3] (3 h, not inflamed paw, 3 hr.), 0%. Moreover, the results for the median lethal dose (LD50) at 168 h in “in vivo [4]” (setting [8]) and in “in vivo [4]” (setting [9]) were 1750 mg/kg and > 1000 mg/kg, respectively.
With `O=C(O)Cc1cc2cc(Cl)ccc2o1` [chloro-5 benzoful-2-acetate], in data set [6], the “anti-inflammatory activity versus phenylbutazone” value is on record as “lower anti-inflammatory activity”. For the same compound, in data set [7], the toxicity versus phenylbutazone result is given as “minor toxicity than phenylbutazone”.
On to `O=C(O)c1cc2cc(Cl)ccc2o1` [chloro-5-benzo(b)furyl-2 carboxylic acid], for which the “anti-inflammatory activity versus phenylbutazone” value in data set [6] is given as “lower anti-inflammatory activity”. For the same compound, the toxicity versus phenylbutazone entry in data set [7] is on record as “minor toxicity than phenylbutazone”.
Take `COc1ccc2oc(CC(=O)O)cc2c1` [methoxy-5 benzo(b)furyl-2-acetate]: in data set [6], the “anti-inflammatory activity versus phenylbutazone” value is “lower anti-inflammatory activity”. For the same compound, the toxicity versus phenylbutazone result in data set [7] is on record as “minor toxicity than phenylbutazone”.
